Reference: US20100234815A1, “STABLE MELT PROCESSABLE CHLORHEXIDINE COMPOSITIONS” (Teleflex Medical Incorporated, priority 2009, published 2010)
Blank lines part the entries; values can stand above or below the compound they belong to.

Key:
Format in all cases: physicochemical
[1] = HPLC of chlorhexidine dodecanoate extracted from LMT Tecoflex-93A compounded resin; conditions: for 4.289 peak (CHDD) / RRT 0.6 (degradant) / RRT 1.3 (degradant) / RRT 1.6 (degradant): LMT Tecoflex-93A compounded resin
[2] = HPLC of CHA extracted from co-extruded 7Fr single lumen tubing
Method: […] Co-extruded tubing was also analyzed for chlorhexidine degradants.
(§1) Chlorhexidine diacetate content of the prepared samples was extracted with 1:1 tetrahydrofuran (THF): H2O and analyzed on the Agilent Eclipse XDB-CN 5u 4.6×150 mm column with guard column. Briefly, 2 centimeter (cm) sample segments were extracted with 5 mL of THF and 5 mL of H2O, vortexed, and centrifuged. HPLC analysis was run on an Agilent Eclipse XDB-CN 5u 4.6×150 mm column and 4.6×12.5 mm Eclipse XDB-CN guard column, with a mixture of deionized water, acetonitrile, and trifluoroacetic acid as the mobile phase. Concentrations of the analytes were determined via calibration curves.

[3] = HPLC of chlorhexidine diacetate extracted from Tecothane-2095A compounded resin (thermal degradation on melt processing); conditions: for 4.1 peak (CHA) / RRT 0.6 (degradant) / RRT 1.3 (degradant) / RRT 1.6 (degradant): Tecothane-2095A compounded resin
Description: Tecothane®-2095A was coated with 5% w/w polytetramethyleneoxide (PTMO) of molecular weight (MW)=1000 by mixing 45.1 gram (g) of PTMO with 900g Tecothane®-2095A. The PTMO coated resin and chlorhexidine diacetate were separately fed into an 18 millimeter (mm) Leistritz twin screw intermeshing extruder (Somerville, N.J.) from K-Tron feeders (Pitman, N.J.) at rates of 2.5 kilograms per hour (kg/hr) and 0.25 kg/hr, respectively. The extruder was set at 112 revolutions per minute (rpm) for screw speed and the barrel zone temperatures were set from 145° C. thru 178° C. The extrudate was pelletized into small pellets.
as §1
(§2) In addition to the experimental conditions described with reference to FIG. 2, chlorhexidine diacetate compounded in Tecothane 2095A was subjected to melt temperatures ranging from about 139° C. to about 172° C. and the concentration of the analytes was determined via a calibration curve as described in the following Table 1.

[4] = HPLC of CHA extracted from Versaflex CL30 compounded resin; conditions: for 4.1 peak (CHA) / RRT 0.6 (degradant) / RRT 1.3 (degradant) / RRT 1.6 (degradant): Versaflex CL30 compounded resin
Method: (§3) Versaflex® CL30 and chlorhexidine diacetate were separately fed into an 18 mm Leistritz twin screw intermeshing extruder from K-tron feeders at rates of 2.5 kg/hr and 0.25 kg/hr, respectively. The barrel zone temperatures were set from 131° C. thru 148° C. The extrudate was pelletized into small pellets.
as §1

[5] = HPLC of chlorhexidine diacetate extracted from low melt temperature Tecoflex-93A compounded resin; conditions: for 4.289 peak (CHA) / RRT 0.6 (degradant) / RRT 1.3 (degradant) / RRT 1.6 (degradant): low melt temperature (LMT) Tecoflex-93A
Method: Low melting temperature Tecoflex-93A and chlorhexidine diacetate were separately fed into al 8 mm Leistritz twin screw intermeshing extruder from K-tron feeders at rates of 1 kg/hr and 0.1 kg/hr, respectively. The barrel zone temperatures were set at 121° C. for all zones. The extrudate was pelletized into small pellets.
as §1
as §2, with “3,” for “2,”, “low melt temperature Tecoflex-93A” for “Tecothane 2095A”, “131°” for “139°”, “137°” for “172°”, “The” for “and the”, “2.” for “1.”

[6] = HPLC of CHA extracted from PVC compounded resin
Method: as §3, with “Separate samples of polyvinyl chloride (shore 65A and shore 85A respectively)” for “Versaflex® CL30”, “2.0” for “2.5”, “0.2” for “0.25”, “140°” for “131°”, “155°” for “148°”
as §1
as §2, with “7,” for “2,”, “polyvinyl chloride (Shore A hardness of […] & 85)” for “Tecothane 2095A”, “145°” for “139°”, “176°” for “172°”, “The” for “and the”, “6.” for “1.”

[7] = co-extruded 7Fr single lumen, melt temp 135 °C (condition 1)
[8] = PVC 60A compounded resin, melt temp 145 °C (condition 1)
[9] = PVC 60A compounded resin, melt temp 154 °C (condition 2)
[10] = PVC 60A compounded resin, melt temp 159 °C (condition 3)
[11] = PVC 60A compounded resin, melt temp 165 °C (condition 4)
[12] = PVC 60A compounded resin, melt temp 171 °C (condition 5)
[13] = PVC 85A compounded resin, melt temp 155 °C (condition 1)
[14] = PVC 85A compounded resin, melt temp 159 °C (condition 2)
[15] = PVC 85A compounded resin, melt temp 163 °C (condition 3)
[16] = PVC 85A compounded resin, melt temp 167 °C (condition 4)
[17] = PVC 85A compounded resin, melt temp 170 °C (condition 5)
[18] = PVC 85A compounded resin, melt temp 176 °C (condition 6)

Structure (SMILES): CCCCCCCCCCCC(=O)O.NC(=NCCCCCCN=C(N)N=C(N)Nc1ccc(Cl)cc1)N=C(N)Nc1ccc(Cl)cc1 [CHDD, chlorhexidine dodecanoate]
4.289 peak (CHDD) ([1]; melt temp 132 °C (condition 1)): 100 | RRT 0.6 (degradant) ([1]; melt temp 132 °C (condition 1)): Non-detected | RRT 1.3 (degradant) ([1]; melt temp 132 °C (condition 1)): Not detected | RRT 1.6 (degradant) ([1]; melt temp 132 °C (condition 1)): Not detected | 4.289 peak (CHDD) ([1]; melt temp 136 °C (condition 2)): 100 | RRT 0.6 (degradant) ([1]; melt temp 136 °C (condition 2)): Non-detected | RRT 1.3 (degradant) ([1]; melt temp 136 °C (condition 2)): Not detected | RRT 1.6 (degradant) ([1]; melt temp 136 °C (condition 2)): Not detected | thermal degradation on melt processing (HPLC, FIG. 4) ([1]; compounded in low melt temperature Tecoflex-93A, melt temperature 137 °C, 280 nm): did not degrade | stable processing temperature limit ([1]; with polyurethanes): at least 136 °C

4.289 peak (CHA) [2, 7]: 100 | RRT 0.6 (degradant) [2, 7]: Not detected | RRT 1.3 (degradant) [2, 7]: Not detected | RRT 1.6 (degradant) [2, 7]: Not detected | stable processing temperature limit ([2]; with polyurethanes, from Table 4 (co-extruded 7Fr single lumen)): at least 135 °C | 4.1 peak (CHA) ([3]; melt temp 139 °C (condition 1)): 89% | RRT 0.6 (degradant) ([3]; melt temp 139 °C (condition 1)): 3% | RRT 1.3 (degradant) ([3]; melt temp 139 °C (condition 1)): 8% | RRT 1.6 (degradant) ([3]; melt temp 139 °C (condition 1)): 1% | 4.1 peak (CHA) ([3]; melt temp 142 °C (condition 2)): 88% | RRT 0.6 (degradant) ([3]; melt temp 142 °C (condition 2)): 3% | RRT 1.3 (degradant) ([3]; melt temp 142 °C (condition 2)): 8% | RRT 1.6 (degradant) ([3]; melt temp 142 °C (condition 2)): 1% | 4.1 peak (CHA) ([3]; melt temp 144 °C (condition 3)): 84% | RRT 0.6 (degradant) ([3]; melt temp 144 °C (condition 3)): 4% | RRT 1.3 (degradant) ([3]; melt temp 144 °C (condition 3)): 11% | RRT 1.6 (degradant) ([3]; melt temp 144 °C (condition 3)): 1% | 4.1 peak (CHA) ([3]; melt temp 172 °C (condition 4)): 77% | RRT 0.6 (degradant) ([3]; melt temp 172 °C (condition 4)): 7% | RRT 1.3 (degradant) ([3]; melt temp 172 °C (condition 4)): 13% | RRT 1.6 (degradant) ([3]; melt temp 172 °C (condition 4)): 3% | thermal degradation on melt processing (HPLC, FIG. 2) ([3]; compounded in Tecothane 2095A, melt temperature 164 °C, 280 nm): degrades into several products | 4.1 peak (CHA) ([4]; melt temp 101 °C (condition 1)): 100 | RRT 0.6 (degradant) ([4]; melt temp 101 °C (condition 1)): Not detected | RRT 1.3 (degradant) ([4]; melt temp 101 °C (condition 1)): Not detected | RRT 1.6 (degradant) ([4]; melt temp 101 °C (condition 1)): Not detected | 4.1 peak (CHA) ([4]; melt temp 121 °C (condition 2)): 100 | RRT 0.6 (degradant) ([4]; melt temp 121 °C (condition 2)): Not detected | RRT 1.3 (degradant) ([4]; melt temp 121 °C (condition 2)): Not detected | RRT 1.6 (degradant) ([4]; melt temp 121 °C (condition 2)): Not detected | 4.1 peak (CHA) ([4]; melt temp 129 °C (condition 3)): 100 | RRT 0.6 (degradant) ([4]; melt temp 129 °C (condition 3)): Not detected | RRT 1.3 (degradant) ([4]; melt temp 129 °C (condition 3)): Not detected | RRT 1.6 (degradant) ([4]; melt temp 129 °C (condition 3)): Not detected | 4.1 peak (CHA) ([4]; melt temp 139 °C (condition 4)): 100 | RRT 0.6 (degradant) ([4]; melt temp 139 °C (condition 4)): Not detected | RRT 1.3 (degradant) ([4]; melt temp 139 °C (condition 4)): Not detected | RRT 1.6 (degradant) ([4]; melt temp 139 °C (condition 4)): Not detected | 4.1 peak (CHA) ([4]; melt temp 144 °C (condition 5)): 100 | RRT 0.6 (degradant) ([4]; melt temp 144 °C (condition 5)): Not detected | RRT 1.3 (degradant) ([4]; melt temp 144 °C (condition 5)): Not detected | RRT 1.6 (degradant) ([4]; melt temp 144 °C (condition 5)): Not detected | 4.1 peak (CHA) ([4]; melt temp 149 °C (condition 6)): 100 | RRT 0.6 (degradant) ([4]; melt temp 149 °C (condition 6)): Not detected | RRT 1.3 (degradant) ([4]; melt temp 149 °C (condition 6)): Not detected | RRT 1.6 (degradant) ([4]; melt temp 149 °C (condition 6)): Not detected | 4.1 peak (CHA) ([4]; melt temp 153 °C (condition 7)): 100 | RRT 0.6 (degradant) ([4]; melt temp 153 °C (condition 7)): Not detected | RRT 1.3 (degradant) ([4]; melt temp 153 °C (condition 7)): Not detected | RRT 1.6 (degradant) ([4]; melt temp 153 °C (condition 7)): Not detected | 4.1 peak (CHA) ([4]; melt temp 161 °C (condition 8)): 100 | RRT 0.6 (degradant) ([4]; melt temp 161 °C (condition 8)): Not detected | RRT 1.3 (degradant) ([4]; melt temp 161 °C (condition 8)): Not detected | RRT 1.6 (degradant) ([4]; melt temp 161 °C (condition 8)): Not detected | thermal degradation on melt processing (HPLC, FIG. 3) ([5]; compounded in low melt temperature Tecoflex-93A, melt temperature 136 °C, 280 nm): did not degrade | 4.289 peak (CHA) ([5]; melt temp 131 °C (condition 1)): 100 | RRT 0.6 (degradant) ([5]; melt temp 131 °C (condition 1)): Not detected | RRT 1.3 (degradant) ([5]; melt temp 131 °C (condition 1)): Not detected | RRT 1.6 (degradant) ([5]; melt temp 131 °C (condition 1)): Not detected | 4.289 peak (CHA) ([5]; melt temp 137 °C (condition 2)): 100 | RRT 0.6 (degradant) ([5]; melt temp 137 °C (condition 2)): Non-detected | RRT 1.3 (degradant) ([5]; melt temp 137 °C (condition 2)): Not detected | RRT 1.6 (degradant) ([5]; melt temp 137 °C (condition 2)): Not detected | stable processing temperature limit ([5]; with polyurethanes): about 137 °C | % Peak area (degradant) [6, 8]: Not detected | % Peak area CHA [6, 8]: 100% | % Peak area (degradant) [6, 9]: Not detected | % Peak area CHA [6, 9]: 100% | % Peak area (degradant) [6, 10]: Not detected | % Peak area CHA [6, 10]: 100% | % Peak area (degradant) [6, 11]: Not detected | % Peak area CHA [6, 11]: 100% | % Peak area (degradant) [6, 12]: 0.4% | % Peak area CHA [6, 12]: 99.6% | % Peak area (degradant) [6, 13]: Not detected | % Peak area CHA [6, 13]: 100% | % Peak area (degradant) [6, 14]: Not detected | % Peak area CHA [6, 14]: 100% | % Peak area (degradant) [6, 15]: Not detected | % Peak area CHA [6, 15]: 100% | % Peak area (degradant) [6, 16]: 0.4% | % Peak area CHA [6, 16]: 99.6% | % Peak area (degradant) [6, 17]: 0.3% | % Peak area CHA [6, 17]: 99.7% | % Peak area (degradant) [6, 18]: 0.7% | % Peak area CHA [6, 18]: 99.3% | thermal degradation on melt processing (HPLC, FIG. 5) ([6]; compounded in polyvinyl chloride (Shore A hardness of 65), melt temperature 145 °C, 280 nm): did not degrade | thermal degradation on melt processing (HPLC, FIG. 6) ([6]; compounded in polyvinyl chloride (Shore A hardness of 85), melt temperature 155 °C, 280 nm): did not degrade | amount of degradant generated (HPLC, FIG. 7) ([6]; compounded in polyvinyl chloride (Shore A hardness of 85), processed at 176 °C, 280 nm): less than 1%
Structure (SMILES): CC(=O)O.CC(=O)O.NC(=N\CCCCCC/N=C(N)/N=C(\N)Nc1ccc(Cl)cc1)/N=C(\N)Nc1ccc(Cl)cc1 [CHA, chlorhexidine diacetate]

processing temperature at which thermally stable ([4]; with polyolefin thermoplastic elastomers (Versaflex CL30)): up to 161 °C | processing temperature at which thermally stable ([6]; with vinyl polymers (PVC 60A & 85A)): ≤ 165 °C
Structure (SMILES): [H]/N=C(\N/C(=N/[H])NCCCCCCNC(=N)NC(=N)Nc1ccc(Cl)cc1)Nc1ccc(Cl)cc1 [chlorhexidine]
